The values that follow come from patent publication US20250114338A1, “TETRAHYDRO-PYRIDO[3,4-b]INDOLE ESTROGEN RECEPTOR MODULATORS AND USES THEREOF” (Genentech, Inc., priority 2014, published 2025).

SMILES strings stand for the structures.

The subject of this test is ER-alpha MCF7. Kind of test: ER-alpha MCF7 HCS EC50; stated as measured by in vitro cell proliferation assays of Examples 902 and 903. It counts as cell-based. To be noted: Homo sapiens, MCF7, MCF7 cells; Table 2. An outline of the steps:
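MCF7 cells seeded 1000-2000 cells/well for 16 h, then treated with nine-point 1:2 DMSO dilution series in quadruplicate at 37 °C, 5% CO2 for 4 days. Viable cells quantified by CellTiter-Glo ATP luminescence; EC50 calculated. Controls: fulvestrant at final 100 nM, DMSO 0.2% v/v.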

Regarding `CC(=O)CN1[C@@H](c2c(F)cc(OC3CN(CCCF)C3)cc2F)c2[nH]c3ccccc3c2C[C@H]1C` [Example 295, 1-((1S,3R)-1-(2,6-difluoro-4-((1-(3-fluoropropyl)azetidin-3-yl)oxy)phenyl)-3-methyl-1,3,4,9-tetrahydro-2H-pyrido[3,4-b]indol-2-yl)propan-2-one], the EC50 was found to be 21000 pM.
Then `C[C@@H]1Cc2c([nH]c3ccccc23)[C@@H](c2c(F)cc(NCCN3CC(CF)C3)cc2F)N1CC(F)(F)F` [Example 296, 3,5-difluoro-N-(2-(3-(fluoromethyl)azetidin-1-yl)ethyl)-4-((1R,3R)-3-methyl-2-(2,2,2-trifluoroethyl)-2,3,4,9-tetrahydro-1H-pyrido[3,4-b]indol-1-yl)aniline], with 200 pM; and `C[C@@H]1Cc2c([nH]c3ccccc23)[C@@H](c2c(F)cc(OCCN3CC(CF)C3)cc2F)N1C[C@H](C)C(=O)N(C)C` [Example 297, (S)-3-((1R,3R)-1-(2,6-difluoro-4-(2-(3-(fluoromethyl)azetidin-1-yl)ethoxy)phenyl)-3-methyl-1,3,4,9-tetrahydro-2H-pyrido[3,4-b]indol-2-yl)-N,N,2-trimethylpropanamide], with 18000 pM; and `C[C@H](CN1[C@H](c2c(F)cc(OCCN3CC(CF)C3)cc2F)c2[nH]c3ccccc3c2C[C@H]1C)C(=O)N(C)C` [Example 298, (R)-3-((1R,3R)-1-(2,6-difluoro-4-(2-(3-(fluoromethyl)azetidin-1-yl)ethoxy)phenyl)-3-methyl-1,3,4,9-tetrahydro-2H-pyrido[3,4-b]indol-2-yl)-N,N,2-trimethylpropanamide], with 5000 pM.
Turning to `C[C@@H]1Cc2c([nH]c3ccccc23)[C@@H](c2c(F)cc(OCCN3CC(CF)C3)cc2F)N1C[C@H](C)C(=O)O` [Example 299, (S)-3-((1R,3R)-1-(2,6-difluoro-4-(2-(3-(fluoromethyl)azetidin-1-yl)ethoxy)phenyl)-3-methyl-1,3,4,9-tetrahydro-2H-pyrido[3,4-b]indol-2-yl)-2-methylpropanoic acid], the EC50 was found to be 3000 pM.
On to `C[C@H](CN1[C@H](c2c(F)cc(OCCN3CC(CF)C3)cc2F)c2[nH]c3ccccc3c2C[C@H]1C)C(=O)O` [Example 300, (R)-3-((1R,3R)-1-(2,6-difluoro-4-(2-(3-(fluoromethyl)azetidin-1-yl)ethoxy)phenyl)-3-methyl-1,3,4,9-tetrahydro-2H-pyrido[3,4-b]indol-2-yl)-2-methylpropanoic acid], for which the EC50 was 1000 pM.
In the case of `CC(C)(F)CN1[C@H](CF)Cc2c([nH]c3ccccc23)[C@H]1c1c(F)cc(OC2CN(CCCF)C2)cc1F` [Example 301, (1R,3S)-1-(2,6-difluoro-4-((1-(3-fluoropropyl)azetidin-3-yl)oxy)phenyl)-2-(2-fluoro-2-methylpropyl)-3-(fluoromethyl)-2,3,4,9-tetrahydro-1H-pyrido[3,4-b]indole], the EC50 turned out to be 88.1 pM.
Turning to `C[C@@H]1Cc2c([nH]c3ccccc23)[C@@H](c2c(F)cc(OC3CN(CCCF)C3)cc2F)N1CC(F)(F)CO` [Example 302, 3-((1R,3R)-1-(2,6-difluoro-4-((1-(3-fluoropropyl)azetidin-3-yl)oxy)phenyl)-3-methyl-3,4-dihydro-1H-pyrido[3,4-b]indol-2(9H)-yl)-2,2-difluoropropan-1-ol], the EC50 was 120 pM.
Turning to `C[C@@H]1Cc2c([nH]c3ccccc23)[C@@H](c2c(F)cc(OC3CN(CCCF)C3)cc2F)N1CC(F)F` [Example 303, (1R,3R)-2-(2,2-difluoroethyl)-1-[2,6-difluoro-4-[1-(3-fluoropropyl)azetidin-3-yl]oxy-phenyl]-3-methyl-1,3,4,9-tetrahydropyrido[3,4-b]indole], the EC50 was 48.2 pM.
Regarding `C[C@@H]1Cc2c([nH]c3ccccc23)[C@@H](c2c(F)cc(NC3CN(CCCF)C3)cc2F)N1CC(F)(F)F` [Example 304, N-(3,5-difluoro-4-((1R,3R)-3-methyl-2-(2,2,2-trifluoroethyl)-2,3,4,9-tetrahydro-1H-pyrido[3,4-b]indol-1-yl)phenyl)-1-(3-fluoropropyl)azetidin-3-amine], the EC50 was 224 pM.
As to `C[C@@H]1Cc2c([nH]c3ccccc23)[C@@H](c2c(F)cc(OCCN3CC(CF)C3)cc2F)N1CC(F)F` [Example 305, (1R,3R)-2-(2,2-difluoroethyl)-1-[2,6-difluoro-4-[2-[3-(fluoromethyl)azetidin-1-yl]ethoxy]phenyl]-3-methyl-1,3,4,9-tetrahydropyrido[3,4-b]indole], the EC50 was 216 pM.
Regarding `C[C@@H]1Cc2c([nH]c3ccccc23)[C@H](c2c(F)cc(OCCN3CC(CF)C3)cc2F)N1CC(F)F` [Example 306, (1S,3R)-2-(2,2-difluoroethyl)-1-[2,6-difluoro-4-[2-[3-(fluoromethyl)azetidin-1-yl]ethoxy]phenyl]-3-methyl-1,3,4,9-tetrahydropyrido[3,4-b]indole], the EC50 is 3000 pM.
As for `C[C@@H]1Cc2c([nH]c3ccccc23)[C@@H](c2c(F)cc(OC3CN(C4CC(F)(F)C4)C3)cc2F)N1CC(C)(C)F` [Example 307, (1R,3R)-1-[4-[1-(3,3-difluorocyclobutyl)azetidin-3-yl]oxy-2,6-difluoro-phenyl]-2-(2-fluoro-2-methyl-propyl)-3-methyl-1,3,4,9-tetrahydropyrido[3,4-b]indole], the EC50 came out at 193 pM.
`C[C@@H]1Cc2c([nH]c3ccccc23)[C@@H](c2c(F)cc(OC3CN(C/C=C/F)C3)cc2F)N1CC(C)(C)F` [Example 308, (1R,3R)-1-[2,6-difluoro-4-[1-[(E)-3-fluoroallyl]azetidin-3-yl]oxy-phenyl]-2-(2-fluoro-2-methyl-propyl)-3-methyl-1,3,4,9-tetrahydropyrido[3,4-b]indole]: the concentration for a half-maximal effect (EC50) is 127 pM.
For `CC(CN1[C@H](c2c(F)cc(OC3CN(CCCF)C3)cc2F)c2[nH]c3ccccc3c2C[C@H]1C)S(C)(=O)=O` (stereo partly drawn) [Example 309, (1R,3R)-1-(2,6-difluoro-4-((1-(3-fluoropropyl)azetidin-3-yl)oxy)phenyl)-3-methyl-2-(2-(methylsulfonyl)propyl)-2,3,4,9-tetrahydro-1H-pyrido[3,4-b]indole], the EC50 amounted to 6000 pM.
For the molecule `C[C@@H]1Cc2c([nH]c3ccccc23)[C@@H](c2ccc(NC3CN(CCCF)C3)cc2)N1S(C)(=O)=O` [Example 310, 1-(3-fluoropropyl)-N-[4-[(1R,3R)-3-methyl-2-methylsulfonyl-1,3,4,9-tetrahydropyrido[3,4-b]indol-1-yl]phenyl]azetidin-3-amine], the EC50 turned out to be 708 pM.
Regarding `C[C@@H]1Cc2c([nH]c3ccccc23)[C@@H](c2c(F)cc(NC3CN(CCCF)C3)cc2F)N1S(C)(=O)=O` [Example 311, N-[3,5-difluoro-4-[(1R,3R)-3-methyl-2-methylsulfonyl-1,3,4,9-tetrahydropyrido[3,4-b]indol-1-yl]phenyl]-1-(3-fluoropropyl)azetidin-3-amine], the EC50 came to 248 pM.
The value for `C=CS(=O)(=O)N1[C@H](c2ccc(OCCN3CC(CF)C3)cc2)c2[nH]c3ccccc3c2C[C@H]1C` [Example 312, (1R,3R)-1-[4-[2-[3-(fluoromethyl)azetidin-1-yl]ethoxy]phenyl]-3-methyl-2-vinylsulfonyl-1,3,4,9-tetrahydropyrido[3,4-b]indole] was 2000 pM.

As a reminder, the EC50 is the concentration giving half of the maximal effect.
